Experiments:
human MAGL (His-hMAGL) [1] = molecular target: T1, human MAGL (His-hMAGL) (Homo sapiens, UniProt Q99685); assay: Measurement of MAGL inhibitory activity by absorbance; type: biochemical; details: 10 μM test compound; substrate p-nitrophenyl acetate, absorbance at 405 nm
T1 construct: made in house; host or cells: Escherichia coli BL21(DE3)
T1 sequence (Q99685 1-303): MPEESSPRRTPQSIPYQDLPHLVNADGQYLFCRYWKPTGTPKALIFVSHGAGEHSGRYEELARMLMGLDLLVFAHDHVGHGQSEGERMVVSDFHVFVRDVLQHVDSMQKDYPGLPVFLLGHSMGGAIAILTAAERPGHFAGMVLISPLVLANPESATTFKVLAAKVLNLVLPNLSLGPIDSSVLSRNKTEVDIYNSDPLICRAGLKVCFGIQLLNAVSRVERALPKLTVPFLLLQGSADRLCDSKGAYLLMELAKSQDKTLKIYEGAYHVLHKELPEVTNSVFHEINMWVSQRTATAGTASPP
Description: (1) Cloning of Human MGLL Encoding MAGL Protein and Construction of Expression Plasmid
Human MGLL cDNA was obtained by PCR using human ORF Clone (DNAForm; Clone ID: 100004585) as a template. For PCR, two kinds of primers: […]
The obtained PCR product was digested with Bam HI and Not I (Takara Bio Inc.), inserted into the Bam HI/Not I site of pET21HH(V) (pET21a (Novagen) inserted with His x6 and TEV Protease recognition sequence) by using Ligation High (Toyobo Co., Ltd.), and introduced into ECOS™ JM109 (Nippon Gene Co., Ltd.), whereby expression plasmid pET21HH(V)/His-hMGLLv2 for Escherichia coli was constructed. (2) Preparation of Recombinant Polyhistidine Tagged Human MAGL Protein
Recombinant His-hMAGL protein was prepared by transforming ECOS™ Competent E. coli BL21(DE3) (Nippon Gene Co., Ltd.) with the pET21HH(V)/His-hMGLLv2 plasmid prepared above. Escherichia coli obtained by transformation was inoculated to 10 mL of LB medium (1% peptone, 0.5% yeast extract, 0.5% sodium chloride, 0.01% ampicillin), and cultured at 30° C. for 16 hr. […] When the turbidity of the culture medium reached about 500 Klett unit, the culture temperature was lowered to 16° C., isopropyl-β-D-thiogalactopyranoside (IPTG) was added to a final concentration of 1 mM, and the mixture was further cultured for 19 hr. After the completion of culture, the culture medium was centrifuged (4° C., 6,000 rpm, 10 min) to give His-hMAGL expression Escherichia coli. Then, His-hMAGL expression Escherichia coli was suspended in 50 mM Tris-HCl (pH 8.0, 100 ml) containing 1% Triton X-100, 20 mM imidazole, 3 mM DTT, 5 U/mL Benzonase (Merck) and 150 mM NaCl, sufficiently cooled, and subjected to sonication at […]=60%, 15 sec/ON, 30 sec/OFF for 3 min using ¾″ solid type crushed horn of BRANSON Digital Sonifier 450 (Central Scientific Commerce, Inc.). Furthermore, the homogenate was centrifuged (4° C., 15,000 rpm, 15 min) and the supernatant was obtained. As the purification apparatus, AKTA explorer 10s (GE Healthcare Japan Corporation) was used at 4° C. To the obtained supernatant was added 5M NaCl to the final salt concentration of 0.3 M, and the mixture was flown through and adsorbed to 5 mL of Ni-NTA Superflow Cartridges (QIAGEN) equilibrated in advance with buffer A (50 mM Tris-HCl (pH 8.0) containing 0.05% TritonX-100, 1 mM DTT, 300 mM NaCl). The column was sufficiently washed with buffer A containing 20 mM imidazole and His-hMAGL was eluted with buffer A containing imidazole at a final concentration of 250 mM. The eluate was further subjected to gel filtration using HiLoad 26/600 Superdex 200 pg (GE Healthcare Japan Corporation) equilibrated with 50 mM Tris-HCl pH 8.0 containing 10% glycerol, 0.05% TritonX-100, 1 mM DTT, 150 mM NaCl. The eluted fraction was concentrated by Amicon Ultra-15 10K (Merck Millipore) to give purified His-hMAGL protein. The protein concentration was measured by BCA Protein Assay Kit (Thermo Fisher Scientific) using BSA as the standard.
(3) Measurement of MAGL Inhibitory Activity
His-hMAGL obtained above was diluted with enzyme reaction buffer (10 mM Tris-HCl, pH 7.5, 1 mM EDTA, 0.1 (w/v) % Triton X-100) to a concentration of 60 ng/mL. […] Thereafter, to each well was added 750 μM p-nitrophenyl acetate (Wako Pure Chemical Industries, Ltd.) by 5 μL, and the absorbance at 405 nm was measured every 2 minutes up to 10 minutes by EnVision (PerkinElmer). The amount of change was obtained by subtracting the absorbance measured immediately after the start of the reaction from the absorbance measured 10 min after the start of the reaction.
MAGL inhibitory rate (%) was calculated according to the following calculation formula. (1−(absorbance change amount of test compound addition group−absorbance change amount of enzyme addition-free group)[…](absorbance change amount of test compound addition-free group−absorbance change amount of enzyme addition-free group))×100

human MAGL (His-hMAGL) [2] = molecular target: T1, human MAGL (His-hMAGL); assay: Measurement of MAGL inhibitory activity by mass spectrometry; type: biochemical; details: MAGL inhibitory rate, test compound 10 μM, His-hMAGL, substrate 2-arachidonylglycerol, RapidFire-mass spectrometry
Method in brief: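 His-tagged human MAGL was reacted with 150 μM 2-arachidonylglycerol substrate (stock, added by 5 μL) for 10 min at room temperature, then stopped with formic acid. Arachidonic acid product was quantified by RapidFire–triple-quadrupole MS in negative SRM mode, corrected by arachidonic acid-d8, and converted to percent inhibition.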

Structure (SMILES) | inhibition at 10 µM (human MAGL (His-hMAGL) [1]) | inhibition at 10 µM (human MAGL (His-hMAGL) [2]) | also measured
O=C(c1cscn1)N1CCN(C2CC(=O)N(c3ccc(Oc4ccccc4)cc3)C2)CC1 (centres unmarked) [Example 6, 1-(4-phenoxyphenyl)-4-(4-(1,3-thiazol-4-ylcarbonyl)piperazin-1-yl)pyrrolidin-2-one] | 93% | – | –
N#Cc1cccnc1N1CCN(C2CC(=O)N(c3ccc(Oc4ccccc4)cc3)C2)CC1 (centres unmarked) [Example 7, 2-(4-(5-Oxo-1-(4-phenoxyphenyl)pyrrolidin-3-yl)piperazin-1-yl)nicotinonitrile] | 87% | – | –
O=C(c1ccc(Cl)o1)N1CCN(C2CC(=O)N(c3ccc(Oc4ccccc4)cc3)C2)CC1 (centres unmarked) [Example 8, 4-(4-(5-chloro-2-furoyl)piperazin-1-yl)-1-(4-phenoxyphenyl)pyrrolidin-2-one] | 93% | – | –
O=C(c1nccs1)N1CCN(C2CC(=O)N(c3ccc(Oc4ccc(F)c(F)c4)cc3)C2)CC1 (centres unmarked) [Example 12, 1-(4-(3,4-difluorophenoxy)phenyl)-4-(4-(1,3-thiazol-2-ylcarbonyl)piperazin-1-yl)pyrrolidin-2-one] | 98% | – | –
COc1cc(Oc2ccccc2)ccc1N1CC(N2CCN(C(=O)c3nccs3)CC2)CC1=O (centres unmarked) [Example 13, 1-(2-Methoxy-4-phenoxyphenyl)-4-(4-(1,3-thiazol-2-ylcarbonyl)piperazin-1-yl)pyrrolidin-2-one] | 98% | – | –
O=C(c1nccs1)N1CCN(C2CC(=O)N(c3ccc4c(ccn4-c4ccc(F)cc4)c3)C2)CC1 (centres unmarked) [Example 14, 1-(1-(4-Fluorophenyl)-1H-indol-5-yl)-4-(4-(1,3-thiazol-2-ylcarbonyl)piperazin-1-yl)pyrrolidin-2-one] | 98% | – | –
O=C(c1nccs1)N1CCN(C2CC(=O)N(c3ccc(Oc4ccccc4)cn3)C2)CC1 (centres unmarked) [Example 18, 1-(5-phenoxypyridin-2-yl)-4-(4-(1,3-thiazol-2-ylcarbonyl)piperazin-1-yl)pyrrolidin-2-one] | 96% | – | –
O=C(c1nccs1)N1CCN(C2CC(=O)N(c3ccc(Oc4ccncc4)cc3)C2)CC1 (centres unmarked) [Example 19, 1-(4-(pyridin-4-yloxy)phenyl)-4-(4-(1,3-thiazol-2-ylcarbonyl)piperazin-1-yl)pyrrolidin-2-one] | 91% | – | –
O=C(c1cscn1)N1CCN([C@@H]2CC(=O)N(c3ccc4c(c3)CCN4c3ccc(C(F)(F)F)cn3)C2)CC1 [Example 420, (4R)-4-(4-(1,3-Thiazol-4-ylcarbonyl)piperazin-1-yl)-1-(1-(5-(trifluoromethyl)pyridin-2-yl)-2,3-dihydro-1H-indol-5-yl)pyrrolidin-2-one] | – | 89% | –
O=C(c1cscn1)N1CCN([C@@H]2CC(=O)N(c3ccc4c(ccn4-c4cccc(C(F)(F)F)c4)c3)C2)CC1 [Example 421, (4R)-4-(4-(1,3-thiazol-4-ylcarbonyl)piperazin-1-yl)-1-(1-(3-(trifluoromethyl)phenyl)-1H-indol-5-yl)pyrrolidin-2-one] | – | 100% | –
O=C(c1cscn1)N1CCN([C@@H]2CC(=O)N(c3ccc4c(ccn4-c4cccc(F)c4)c3)C2)CC1 [Example 422, (4R)-1-(1-(3-fluorophenyl)-1H-indol-5-yl)-4-(4-(1,3-thiazol-4-ylcarbonyl)piperazin-1-yl)pyrrolidin-2-one] | – | 99% | –
O=C(c1cscn1)N1CCN([C@@H]2CC(=O)N(c3ccc4c(ccn4-c4ccc(Cl)cc4)c3)C2)CC1 [Example 423, (4R)-1-(1-(4-Chlorophenyl)-1H-indol-5-yl)-4-(4-(1,3-thiazol-4-ylcarbonyl)piperazin-1-yl)pyrrolidin-2-one] | – | 98% | –
O=C(c1cscn1)N1CCN([C@@H]2CC(=O)N(c3ccc4c(ccn4-c4cc(C(F)(F)F)ccn4)c3)C2)CC1 [Example 425, (4R)-4-(4-(1,3-Thiazol-4-ylcarbonyl)piperazin-1-yl)-1-(1-(4-(trifluoromethyl)pyridin-2-yl)-1H-indol-5-yl)pyrrolidin-2-one] | – | 100% | –
Cc1ncccc1-c1cc(F)cc(N2C[C@H](N3CCN(c4ncccn4)CC3)CC2=O)c1 [Example 426, (4R)-1-(3-Fluoro-5-(2-methylpyridin-3-yl)phenyl)-4-(4-(pyrimidin-2-yl)piperazin-1-yl)pyrrolidin-2-one] | – | 99% | –
O=C(c1cscn1)N1CCN([C@@H]2CC(=O)N(c3ccc4c(ccn4-c4cccc(Cl)c4)c3)C2)CC1 [Example 428, (4R)-1-(1-(3-chlorophenyl)-1H-indol-5-yl)-4-(4-(1,3-thiazol-4-ylcarbonyl)piperazin-1-yl)pyrrolidin-2-one] | – | 100% | –
O=C(c1cscn1)N1CCN([C@@H]2CC(=O)N(c3ccc4c(c3)CCN4c3ccc(F)cc3)C2)CC1 [Example 429, (4R)-1-(1-(4-fluorophenyl)-2,3-dihydro-1H-indol-5-yl)-4-(4-(1,3-thiazol-4-ylcarbonyl)piperazin-1-yl)pyrrolidin-2-one] | – | 100% | –
O=C1CC(N2CCN(c3ncccn3)CC2)CN1c1ccc2c(c1)CCN2c1ncc(C(F)(F)F)cn1 (stereo not drawn) [Example 430, 4-(4-(Pyrimidin-2-yl)piperazin-1-yl)-1-(1-(5-(trifluoromethyl)pyrimidin-2-yl)-2,3-dihydro-1H-indol-5-yl)pyrrolidin-2-one (optical isomer)] | – | – | % inhibition at 10 μM (human MAGL (His-hMAGL) [2]; 10 µM): 85%
O=C(c1cscn1)N1CCN([C@@H]2CC(=O)N(c3ccc4c(ccn4-c4ncc(C(F)(F)F)cn4)c3)C2)CC1 [Example 432, (4R)-4-(4-(1,3-Thiazol-4-ylcarbonyl)piperazin-1-yl)-1-(1-(5-(trifluoromethyl)pyrimidin-2-yl)-1H-indol-5-yl)pyrrolidin-2-one] | – | 100% | –
O=C1CC(N2CCN(c3ncccn3)CC2)CN1c1ccc2c(ccn2-c2ncc(C(F)(F)F)cn2)c1 (centres unmarked) [Example 433, 4-(4-(Pyrimidin-2-yl)piperazin-1-yl)-1-(1-(5-(trifluoromethyl)pyrimidin-2-yl)-1H-indol-5-yl)pyrrolidin-2-one] | – | 83% | –
CC1C(N2CCN(C(=O)c3nccs3)CC2)CC(=O)N1c1ccc2c(ccn2-c2ncc(C(F)(F)F)cn2)c1 (centres unmarked) [Example 434, 5-methyl-4-(4-(1,3-thiazol-2-ylcarbonyl)piperazin-1-yl)-1-(1-(5-(trifluoromethyl)pyrimidin-2-yl)-1H-indol-5-yl)pyrrolidin-2-one] | – | 100% | –

— patent US9624170B2, “4-(piperrazin-1-yl)-pyrrolidin-2-one compounds as monoacylglycerol lipase (MAGL) inhibitors” (TAKEDA PHARMACEUTICAL COMPANY LIMITED, priority 2013, dated 2017)
